Test: RuAAC macrocyclisation of azide/terminal alkyne linear peptidomimetics to 1,5-triazole ([Cp*RuCl]4 0.1 eq, Ar-degassed), then Boc removal (TMSCl/MeOH GP4 or HCl/dioxane GP5)
Details: toluene (reflux), 1.25 mM, 111.0 °C, 18.0 h, 2 steps

COC(=O)[C@@H]1CCCCn2nncc2CCCC(=O)NC[C@H](N)C(=O)N1 [Boc-Dap(5-hexynoyl)-Lys(N3)-OMe]
ring closure, yield over several steps (from C#CCCCC(=O)NC[C@H](NC(=O)OC(C)(C)C)C(=O)N[C@@H](CCCCN=[N+]=[N-])C(=O)OC, 16-membered ring): 99%

COC(=O)[C@@H]1CCCCNC(=O)[C@H](Cc2ccccc2)n2nncc2CCCC(=O)NC[C@H](N)C(=O)N1 [Boc-Dap(5-hexynoyl)-Lys(N3-Phe)-OMe]
ring closure, yield over several steps (from C#CCCCC(=O)NC[C@H](NC(=O)OC(C)(C)C)C(=O)N[C@@H](CCCCNC(=O)[C@H](Cc1ccccc1)N=[N+]=[N-])C(=O)OC, 19-membered ring): 99%

COC(=O)[C@@H]1CCCn2nncc2CCCC(=O)NC[C@H](N)C(=O)N1 [Boc-Dap(5-hexynoyl)-Orn(N3)-OMe]
ring closure, yield over several steps (from C#CCCCC(=O)NC[C@H](NC(=O)OC(C)(C)C)C(=O)N[C@@H](CCCN=[N+]=[N-])C(=O)OC, 15-membered ring): 99%

COC(=O)[C@@H]1CNC(=O)[C@H](Cc2ccccc2)n2nncc2CNC(=O)NC[C@H](N)C(=O)N1 [Boc-Dap(CONH-propargyl)-Dap(N3-Phe)-OMe]
ring closure, yield over several steps (from C#CCNC(=O)NC[C@H](NC(=O)OC(C)(C)C)C(=O)N[C@@H](CNC(=O)[C@H](Cc1ccccc1)N=[N+]=[N-])C(=O)OC, 15-membered ring): 40%

COC(=O)[C@@H]1CCCCn2nncc2CNC(=O)NC[C@H](N)C(=O)N1 [Boc-Dap(CONH-propargyl)-Lys(N3)-OMe]
ring closure, yield over several steps (from C#CCNC(=O)NC[C@H](NC(=O)OC(C)(C)C)C(=O)N[C@@H](CCCCN=[N+]=[N-])C(=O)OC, 15-membered ring): 73%

COC(=O)[C@@H]1CCCCNC(=O)[C@H](Cc2ccccc2)n2nncc2CNC(=O)NC[C@H](N)C(=O)N1 [Boc-Dap(CONH-propargyl)-Lys(N3-Phe)-OMe]
ring closure, yield over several steps (from C#CCNC(=O)NC[C@H](NC(=O)OC(C)(C)C)C(=O)N[C@@H](CCCCNC(=O)[C@H](Cc1ccccc1)N=[N+]=[N-])C(=O)OC, 18-membered ring): 38%

COC(=O)[C@@H]1CCCn2nncc2CNC(=O)NC[C@H](N)C(=O)N1 [Boc-Dap(CONH-propargyl)-Orn(N3)-OMe]
ring closure, yield over several steps (from C#CCNC(=O)NC[C@H](NC(=O)OC(C)(C)C)C(=O)N[C@@H](CCCN=[N+]=[N-])C(=O)OC, 14-membered ring): 80%

COC(=O)[C@@H]1Cc2ccc(cc2)-n2nncc2CNC(=O)NC[C@H](N)C(=O)N1 [Boc-Dap(CONH-propargyl)-Phe(4-N3)-OMe]
ring closure, yield over several steps (from C#CCNC(=O)NC[C@H](NC(=O)OC(C)(C)C)C(=O)N[C@@H](Cc1ccc(N=[N+]=[N-])cc1)C(=O)OC, 16-membered ring): 27%

COC(=O)[C@@H]1CNC(=O)[C@H](Cc2ccccc2)n2nncc2CCC(=O)NCCCC[C@H](N)C(=O)N1 [Boc-Lys(4-pentynoyl)-Dap(N3-Phe)-OMe]
ring closure, yield over several steps (from C#CCCC(=O)NCCCC[C@H](NC(=O)OC(C)(C)C)C(=O)N[C@@H](CNC(=O)[C@H](Cc1ccccc1)N=[N+]=[N-])C(=O)OC, 18-membered ring): 90%

COC(=O)[C@@H]1CCCCn2nncc2CCC(=O)NCCCC[C@H](N)C(=O)N1 [Boc-Lys(4-pentynoyl)-Lys(N3)-OMe]
ring closure, yield over several steps (from C#CCCC(=O)NCCCC[C@H](NC(=O)OC(C)(C)C)C(=O)N[C@@H](CCCCN=[N+]=[N-])C(=O)OC, 18-membered ring): 37%

COC(=O)[C@@H]1Cc2ccc(cc2)-n2nncc2CCC(=O)NCCCC[C@H](N)C(=O)N1 [Boc-Lys(4-pentynoyl)-Phe(4-N3)-OMe]
ring closure, yield over several steps (from C#CCCC(=O)NCCCC[C@H](NC(=O)OC(C)(C)C)C(=O)N[C@@H](Cc1ccc(N=[N+]=[N-])cc1)C(=O)OC, 19-membered ring): 68%

COC(=O)[C@@H]1CNC(=O)[C@H](Cc2ccccc2)n2nncc2CCCC(=O)NCCCC[C@H](N)C(=O)N1 [Boc-Lys(5-hexynoyl)-Dap(N3-Phe)-OMe]
ring closure, yield over several steps (from C#CCCCC(=O)NCCCC[C@H](NC(=O)OC(C)(C)C)C(=O)N[C@@H](CNC(=O)[C@H](Cc1ccccc1)N=[N+]=[N-])C(=O)OC, 19-membered ring): 99%

COC(=O)[C@@H]1CCCCn2nncc2CCCC(=O)NCCCC[C@H](N)C(=O)N1 [Boc-Lys(5-hexynoyl)-Lys(N3)-OMe]
ring closure, yield over several steps (from C#CCCCC(=O)NCCCC[C@H](NC(=O)OC(C)(C)C)C(=O)N[C@@H](CCCCN=[N+]=[N-])C(=O)OC, 19-membered ring): 65%

COC(=O)[C@@H]1CCCCNC(=O)[C@H](Cc2ccccc2)n2nncc2CCCC(=O)NCCCC[C@H](N)C(=O)N1 [Boc-Lys(5-hexynoyl)-Lys(N3-Phe)-OMe]
ring closure, yield over several steps (from C#CCCCC(=O)NCCCC[C@H](NC(=O)OC(C)(C)C)C(=O)N[C@@H](CCCCNC(=O)[C@H](Cc1ccccc1)N=[N+]=[N-])C(=O)OC, 22-membered ring): 60%

COC(=O)[C@@H]1CCCn2nncc2CCCC(=O)NCCCC[C@H](N)C(=O)N1 [Boc-Lys(5-hexynoyl)-Orn(N3)-OMe]
ring closure, yield over several steps (from C#CCCCC(=O)NCCCC[C@H](NC(=O)OC(C)(C)C)C(=O)N[C@@H](CCCN=[N+]=[N-])C(=O)OC, 18-membered ring): 99%

COC(=O)[C@@H]1CNC(=O)[C@H](Cc2ccccc2)n2nncc2CNC(=O)NCCCC[C@H](N)C(=O)N1 [Boc-Lys(CONH-propargyl)-Dap(N3-Phe)-OMe]
ring closure, yield over several steps (from C#CCNC(=O)NCCCC[C@H](NC(=O)OC(C)(C)C)C(=O)N[C@@H](CNC(=O)[C@H](Cc1ccccc1)N=[N+]=[N-])C(=O)OC, 18-membered ring): 96%

COC(=O)[C@@H]1CCCCn2nncc2CNC(=O)NCCCC[C@H](N)C(=O)N1 [Boc-Lys(CONH-propargyl)-Lys(N3)-OMe]
ring closure, yield over several steps (from C#CCNC(=O)NCCCC[C@H](NC(=O)OC(C)(C)C)C(=O)N[C@@H](CCCCN=[N+]=[N-])C(=O)OC, 18-membered ring): 99%

COC(=O)[C@@H]1CCCCNC(=O)[C@H](Cc2ccccc2)n2nncc2CNC(=O)NCCCC[C@H](N)C(=O)N1 [Boc-Lys(CONH-propargyl)-Lys(N3-Phe)-OMe]
ring closure, yield over several steps (from C#CCNC(=O)NCCCC[C@H](NC(=O)OC(C)(C)C)C(=O)N[C@@H](CCCCNC(=O)[C@H](Cc1ccccc1)N=[N+]=[N-])C(=O)OC, 21-membered ring): 81%

COC(=O)[C@@H]1CCCn2nncc2CNC(=O)NCCCC[C@H](N)C(=O)N1 [Boc-Lys(CONH-propargyl)-Orn(N3)-OMe]
ring closure, yield over several steps (from C#CCNC(=O)NCCCC[C@H](NC(=O)OC(C)(C)C)C(=O)N[C@@H](CCCN=[N+]=[N-])C(=O)OC, 17-membered ring): 99%

COC(=O)[C@@H]1CNC(=O)[C@H](Cc2ccccc2)n2nncc2CCC(=O)NCCC[C@H](N)C(=O)N1 [Boc-Orn(4-pentynoyl)-Dap(N3-Phe)-OMe]
ring closure, yield over several steps (from C#CCCC(=O)NCCC[C@H](NC(=O)OC(C)(C)C)C(=O)N[C@@H](CNC(=O)[C@H](Cc1ccccc1)N=[N+]=[N-])C(=O)OC, 17-membered ring): 93%

COC(=O)[C@@H]1CCCCn2nncc2CCC(=O)NCCC[C@H](N)C(=O)N1 [Boc-Orn(4-pentynoyl)-Lys(N3)-OMe]
ring closure, yield over several steps (from C#CCCC(=O)NCCC[C@H](NC(=O)OC(C)(C)C)C(=O)N[C@@H](CCCCN=[N+]=[N-])C(=O)OC, 17-membered ring): 82%

COC(=O)[C@@H]1CCCCNC(=O)[C@H](Cc2ccccc2)n2nncc2CCC(=O)NCCC[C@H](N)C(=O)N1 [Boc-Orn(4-pentynoyl)-Lys(N3-Phe)-OMe]
ring closure, yield over several steps (from C#CCCC(=O)NCCC[C@H](NC(=O)OC(C)(C)C)C(=O)N[C@@H](CCCCNC(=O)[C@H](Cc1ccccc1)N=[N+]=[N-])C(=O)OC, 20-membered ring): 97%

COC(=O)[C@@H]1CCCn2nncc2CCC(=O)NCCC[C@H](N)C(=O)N1 [Boc-Orn(4-pentynoyl)-Orn(N3)-OMe]
ring closure, yield over several steps (from C#CCCC(=O)NCCC[C@H](NC(=O)OC(C)(C)C)C(=O)N[C@@H](CCCN=[N+]=[N-])C(=O)OC, 16-membered ring): 99%

COC(=O)[C@@H]1Cc2ccc(cc2)-n2nncc2CCC(=O)NCCC[C@H](N)C(=O)N1 [Boc-Orn(4-pentynoyl)-Phe(4-N3)-OMe]
ring closure, yield over several steps (from C#CCCC(=O)NCCC[C@H](NC(=O)OC(C)(C)C)C(=O)N[C@@H](Cc1ccc(N=[N+]=[N-])cc1)C(=O)OC, 18-membered ring): 62%

COC(=O)[C@@H]1CNC(=O)[C@H](Cc2ccccc2)n2nncc2CCCC(=O)NCCC[C@H](N)C(=O)N1 [Boc-Orn(5-hexynoyl)-Dap(N3-Phe)-OMe]
ring closure, yield over several steps (from C#CCCCC(=O)NCCC[C@H](NC(=O)OC(C)(C)C)C(=O)N[C@@H](CNC(=O)[C@H](Cc1ccccc1)N=[N+]=[N-])C(=O)OC, 18-membered ring): 46%

COC(=O)[C@@H]1CCCCn2nncc2CCCC(=O)NCCC[C@H](N)C(=O)N1 [Boc-Orn(5-hexynoyl)-Lys(N3)-OMe]
ring closure, yield over several steps (from C#CCCCC(=O)NCCC[C@H](NC(=O)OC(C)(C)C)C(=O)N[C@@H](CCCCN=[N+]=[N-])C(=O)OC, 18-membered ring): 99%

Reference: PMC4441267
